Columns and labels:
[1] = target: T1, human sphingosine-1-phosphate receptor 1 (S1P1) (Homo sapiens (Human), UniProt P21453); test: β-Arrestin2 recruitment assay (PathHunter), S1P1 CHO-K1 cells; type: cell-based; details: for hS1P1 B-arrestin2 pEC50: β-arrestin2 recruitment, S1P1 CHO-K1 cells; for Emax: CHO-K1, efficacy (SPAN) normalized to fingolimod, read-out: hS1P1 B-arrestin2 SPAN
In short: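 Enzyme-fragment complementation read-out: agonist-driven β-arrestin2 binding to ProLink-tagged human S1P1 in stable CHO-K1 cells restores β-galactosidase, measured 1 h at room temperature after a 60 min 37° C. compound incubation. Potency as pEC50, efficacy relative to fingolimod (SPAN).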
Target sequence in this assay (P21453 whole entry, looked up, the tested form may be a part): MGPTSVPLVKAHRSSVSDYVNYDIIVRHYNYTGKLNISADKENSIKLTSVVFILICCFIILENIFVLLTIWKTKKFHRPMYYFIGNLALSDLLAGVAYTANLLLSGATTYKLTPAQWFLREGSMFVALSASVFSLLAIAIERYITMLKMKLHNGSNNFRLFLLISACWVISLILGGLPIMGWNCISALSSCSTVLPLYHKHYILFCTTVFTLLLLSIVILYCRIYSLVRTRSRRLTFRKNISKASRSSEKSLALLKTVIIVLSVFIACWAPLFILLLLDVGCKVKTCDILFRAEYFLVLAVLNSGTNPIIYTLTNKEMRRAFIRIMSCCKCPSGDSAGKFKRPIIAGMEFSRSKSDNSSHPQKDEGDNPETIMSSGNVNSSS
Target sequence in this assay (P32121 whole entry partner, looked up, the tested form may be a part): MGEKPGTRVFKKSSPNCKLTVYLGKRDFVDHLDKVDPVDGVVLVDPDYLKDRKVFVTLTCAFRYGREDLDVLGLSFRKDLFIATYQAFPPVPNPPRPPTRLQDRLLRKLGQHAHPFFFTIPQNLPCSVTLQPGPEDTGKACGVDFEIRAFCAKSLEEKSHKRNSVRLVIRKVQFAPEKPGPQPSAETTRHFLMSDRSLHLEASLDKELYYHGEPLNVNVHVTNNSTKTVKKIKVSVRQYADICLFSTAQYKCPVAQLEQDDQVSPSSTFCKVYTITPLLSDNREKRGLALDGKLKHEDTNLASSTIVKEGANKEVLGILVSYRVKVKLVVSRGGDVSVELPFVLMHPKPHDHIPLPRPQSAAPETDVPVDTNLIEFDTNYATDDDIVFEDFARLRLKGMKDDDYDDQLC

[2] = target: T1, human sphingosine-1-phosphate receptor 1 (S1P1); test: Inhibition of cAMP production (HTRF cAMP HiRange), S1P1 CHO-K1 cells; type: cell-based; details: for hS1P1 cAMP pEC50: inhibition of cAMP production, S1P1 CHO-K1 cells; for Emax: CHO-K1, efficacy (SPAN) normalized to fingolimod, read-out: hS1P1 cAMP SPAN
In short: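 CHO-K1 cells stably co-expressing human S1P1 (C-terminal Prolink tag) and EA-β-arrestin2 were grown in AssayComplete Media 6 at 37° C. and 5% CO2, plated, and incubated overnight. Agonist-driven inhibition of intracellular cAMP was read by TR-FRET with the HTRF cAMP HiRange kit on a PheraStar reader. Potency is pEC50, and efficacy (SPAN) is normalized to fingolimod.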
Target sequence in this assay (P21453 whole entry, looked up, the tested form may be a part): as the sequence (P21453 whole entry, looked up, the tested form may be a part) above

COc1ccccc1-c1noc(-c2ccc3[nH]ncc3c2)n1 [Compound 371, 5-(1H-indazol-5-yl)-3-(2-methoxyphenyl)-1,2,4-oxadiazole]
hS1P1 B-arrestin2 pEC50 [1]: <5 | hS1P1 cAMP pEC50 [2]: <6.5

CCCn1nnc2cc(-c3nc(-c4cccc(C)c4)no3)ccc21 [Compound 54, 5-[3-(3-methylphenyl)-1,2,4-oxadiazol-5-yl]-1-propyl-1H-1,2,3-benzotriazole]
hS1P1 B-arrestin2 pEC50 [1]: <5 | hS1P1 cAMP pEC50 [2]: <6.5

C=CCNc1ccc(-c2ccc(-c3ccc4c(c3)nnn4C(C)C)cc2)cc1C#N [Compound 508, 4-(allylamino)-4′-(1-isopropyl-1H-benzo[d][1,2,3]triazol-5-yl)-[1,1′-biphenyl]-3-carbonitrile]
Emax [1]: < 75% | hS1P1 B-arrestin2 pEC50 [1]: <5 | Emax [2]: > 75% | hS1P1 cAMP pEC50 [2]: <6.5

Cc1ccncc1-c1noc(-c2ccc3c(c2)nnn3C(C)C)n1 [Compound 101, 5-[3-(4-methylpyridin-3-yl)-1,2,4-oxadiazol-5-yl]-1-(propan-2-yl)-1H-1,2,3-benzotriazole]
Emax [1]: > 75% | hS1P1 B-arrestin2 pEC50 [1]: >5 | Emax [2]: > 75% | hS1P1 cAMP pEC50 [2]: >6.5

N#Cc1cc(-c2nnc(-c3ccc4[nH]ncc4c3)o2)ccc1NCC1CC1 [Compound 352, 2-[(cyclopropylmethyl)amino]-5-[5-(1H-indazol-5-yl)-1,3,4-oxadiazol-2-yl]benzonitrile]
Emax [1]: > 75% | hS1P1 B-arrestin2 pEC50 [1]: >5 | Emax [2]: > 75% | hS1P1 cAMP pEC50 [2]: >6.5

Cc1ccc(-c2noc(-c3ccc4c(c3)nnn4C3CCCCC3)n2)cc1 [Compound 117, 1-cyclohexyl-5-[3-(4-methylphenyl)-1,2,4-oxadiazol-5-yl]-1H-1,2,3-benzotriazole]
Emax [1]: < 75% | hS1P1 B-arrestin2 pEC50 [1]: <5 | Emax [2]: < 75% | hS1P1 cAMP pEC50 [2]: <6.5

CCC1(CC)CC(=O)c2cc(-c3nc(-c4ccc(C)nc4)no3)ccc2O1 [Compound 550, 2,2-diethyl-6-(3-(6-methylpyridin-3-yl)-1,2,4-oxadiazol-5-yl)chroman-4-one]
hS1P1 B-arrestin2 pEC50 [1]: >5 | hS1P1 cAMP pEC50 [2]: <6.5

CCC1(CC)CC(=O)c2cc(-c3nc(-c4cncnc4)no3)ccc2O1 [Compound 620, 2,2-diethyl-6-(3-(pyrimidin-5-yl)-1,2,4-oxadiazol-5-yl)chroman-4-one]
hS1P1 B-arrestin2 pEC50 [1]: >5 | hS1P1 cAMP pEC50 [2]: >6.5

CCC1(CC)CC(=O)c2cc(-c3nc(-c4ccco4)no3)ccc2O1 [Compound 465, 2,2-diethyl-6-(3-(furan-2-yl)-1,2,4-oxadiazol-5-yl)chroman-4-one]
hS1P1 B-arrestin2 pEC50 [1]: >5 | hS1P1 cAMP pEC50 [2]: >6.5

Fc1cc(-c2noc(-c3ccc4c(c3)nnn4C3CCCC3)n2)ccc1C(F)(F)F [Compound 1, 1-cyclopentyl-5-{3-[3-fluoro-4-(trifluoromethyl)phenyl]-1,2,4-oxadiazol-5-yl}-1H-1,2,3-benzotriazole]
hS1P1 B-arrestin2 pEC50 [1]: <5 | hS1P1 cAMP pEC50 [2]: <6.5

Cc1cccc2nc(-c3ccc4c(c3)nnn4C(C)C)oc12 [Compound 421, 2-(1-isopropyl-1H-benzo[d][1,2,3]triazol-5-yl)-7-methylbenzo[d]oxazole]
Emax [1]: < 75% | hS1P1 B-arrestin2 pEC50 [1]: <5 | Emax [2]: > 75% | hS1P1 cAMP pEC50 [2]: <6.5

CC(C)CCn1nnc2cc(-c3nc(-c4ccccc4)no3)ccc21 [Compound 271, 1-(3-methylbutyl)-5-(3-phenyl-1,2,4-oxadiazol-5-yl)-1H-1,2,3-benzotriazole]
Emax [1]: < 75% | hS1P1 B-arrestin2 pEC50 [1]: <5 | Emax [2]: < 75% | hS1P1 cAMP pEC50 [2]: <6.5

FC(F)(F)c1cc(-c2noc(-c3ccc4c(c3)nnn4C3CC3)n2)ccc1OCc1ccccc1 [Compound 85, 5-{3-[4-(benzyloxy)-3-(trifluoromethyl)phenyl]-1,2,4-oxadiazol-5-yl}-1-cyclopropyl-1H-1,2,3-benzotriazole]
Emax [1]: < 75% | hS1P1 B-arrestin2 pEC50 [1]: <5 | Emax [2]: < 75% | hS1P1 cAMP pEC50 [2]: <6.5

CC(C)n1nnc2cc(-c3nsc(-c4ccccc4O)n3)ccc21 [Compound 112, 2-{3-[1-(propan-2-yl)-1H-1,2,3-benzotriazol-5-yl]-1,2,4-thiadiazol-5-yl}phenol]
hS1P1 B-arrestin2 pEC50 [1]: >5 | hS1P1 cAMP pEC50 [2]: >6.5

C=CCn1nnc2cc(-c3noc(-c4ccccc4Br)n3)ccc21 [Compound 42, 3-(1-allyl-1H-benzo[d][1,2,3]triazol-5-yl)-5-(2-bromophenyl)-1,2,4-oxadiazole]
hS1P1 B-arrestin2 pEC50 [1]: <5 | hS1P1 cAMP pEC50 [2]: <6.5

CCCCC1(CCCC)CC(=O)c2cc(-c3nc(-c4cccnc4)no3)ccc2O1 [Compound 188, 2,2-dibutyl-6-[3-(pyridin-3-yl)-1,2,4-oxadiazol-5-yl]-3,4-dihydro-2H-1-benzopyran-4-one]
Emax [1]: < 75% | hS1P1 B-arrestin2 pEC50 [1]: <5 | Emax [2]: < 75% | hS1P1 cAMP pEC50 [2]: <6.5

COc1ccc(-c2noc(-c3ccc4c(c3)nnn4C(C)C)n2)cc1OC [Compound 230, 3-(3,4-dimethoxyphenyl)-5-(1-isopropyl-1H-benzo[d][1,2,3]triazol-5-yl)-1,2,4-oxadiazole]
Emax [1]: < 75% | hS1P1 B-arrestin2 pEC50 [1]: <5 | Emax [2]: < 75% | hS1P1 cAMP pEC50 [2]: <6.5

CC(C)n1nnc2cc(-c3noc(C4CCOCC4)n3)ccc21 [Compound 89, 5-[5-(oxan-4-yl)-1,2,4-oxadiazol-3-yl]-1-(propan-2-yl)-1H-1,2,3-benzotriazole]
Emax [1]: < 75% | hS1P1 B-arrestin2 pEC50 [1]: <5 | Emax [2]: < 75% | hS1P1 cAMP pEC50 [2]: <6.5

CC(C)Cn1nnc2cc(-c3nc4ccncc4o3)ccc21 [Compound 504, 2-(1-isobutyl-1H-benzo[d][1,2,3]triazol-5-yl)oxazolo[5,4-c]pyridine]
Emax [1]: < 75% | hS1P1 B-arrestin2 pEC50 [1]: <5 | Emax [2]: > 75% | hS1P1 cAMP pEC50 [2]: <6.5

CCC1(CC)CC(=O)c2cc(-c3nc(-c4ccccc4C)no3)ccc2O1 [Compound 66, 2,2-diethyl-6-(3-(o-tolyl)-1,2,4-oxadiazol-5-yl)chroman-4-one]
Emax [1]: > 75% | hS1P1 B-arrestin2 pEC50 [1]: >5 | Emax [2]: > 75% | hS1P1 cAMP pEC50 [2]: >6.5

COc1ccccc1-c1c[nH]c(-c2ccc3c(c2)nnn3C(C)C)c1 [Compound 566, 5-[4-(2-methoxyphenyl)-1H-pyrrol-2-yl]-1-(propan-2-yl)-1H-1,2,3-benzotriazole]
hS1P1 B-arrestin2 pEC50 [1]: <5 | hS1P1 cAMP pEC50 [2]: <6.5

CC(C)n1nnc2cc(-c3noc(-c4cccc(COc5ccccc5)c4)n3)ccc21 [Compound 23, 3-(1-isopropyl-1H-benzo[d][1,2,3]triazol-5-yl)-5-(3-(phenoxymethyl)phenyl)-1,2,4-oxadiazole]
hS1P1 B-arrestin2 pEC50 [1]: <5 | hS1P1 cAMP pEC50 [2]: <6.5

CC(C)n1nnc2cc(-c3nc(-c4ccc(Cl)s4)no3)ccc21 [Compound 170, 5-[3-(5-chlorothiophen-2-yl)-1,2,4-oxadiazol-5-yl]-1-(propan-2-yl)-1H-1,2,3-benzotriazole]
Emax [1]: < 75% | hS1P1 B-arrestin2 pEC50 [1]: <5 | Emax [2]: < 75% | hS1P1 cAMP pEC50 [2]: <6.5

CCC1(CC)CC(=O)c2cc(-c3nc(-c4cccc(OC)n4)no3)ccc2O1 [Compound 553, 2,2-diethyl-6-[3-(6-methoxypyridin-2-yl)-1,2,4-oxadiazol-5-yl]-3,4-dihydro-2H-1-benzopyran-4-one]
hS1P1 B-arrestin2 pEC50 [1]: >5 | hS1P1 cAMP pEC50 [2]: <6.5

CC(C)n1nnc2cc(-c3noc(-c4ncccc4O)n3)ccc21 [Compound 602, 2-{3-[1-(propan-2-yl)-1H-1,2,3-benzotriazol-5-yl]-1,2,4-oxadiazol-5-yl}pyridin-3-ol]
hS1P1 B-arrestin2 pEC50 [1]: <5 | hS1P1 cAMP pEC50 [2]: <6.5

COc1ccc(-c2nc(-c3ccc4c(c3)nnn4C(C)(C)CO)no2)c(C)c1 [Compound 610, 2-(5-(5-(4-methoxy-2-methylphenyl)-1,2,4-oxadiazol-3-yl)-1H-benzo[d][1,2,3]triazol-1-yl)-2-methylpropan-1-ol]
hS1P1 B-arrestin2 pEC50 [1]: <5 | hS1P1 cAMP pEC50 [2]: <6.5

CC(C)n1nnc2cc(-c3noc(-c4ccc(COc5ccccc5)cc4)n3)ccc21 [Compound 131, 3-(1-isopropyl-1H-benzo[d][1,2,3]triazol-5-yl)-5-(4-(phenoxymethyl)phenyl)-1,2,4-oxadiazole]
Emax [1]: < 75% | hS1P1 B-arrestin2 pEC50 [1]: <5 | Emax [2]: < 75% | hS1P1 cAMP pEC50 [2]: <6.5

CCC1(CC)CC(=O)c2cc(-c3nc(-c4cccnc4)ns3)ccc2O1 [Compound 309, 2,2-diethyl-6-(3-(pyridin-3-yl)-1,2,4-thiadiazol-5-yl)chroman-4-one]
Emax [1]: > 75% | hS1P1 B-arrestin2 pEC50 [1]: <5 | Emax [2]: > 75% | hS1P1 cAMP pEC50 [2]: <6.5

COc1cccc(OC)c1-c1noc(-c2ccc3c(cnn3C(C)C)c2)n1 [Compound 335, 3-(2,6-dimethoxyphenyl)-5-(1-isopropylindazol-5-yl)-1,2,4-oxadiazole]
Emax [1]: < 75% | hS1P1 B-arrestin2 pEC50 [1]: <5 | Emax [2]: < 75% | hS1P1 cAMP pEC50 [2]: <6.5

CC(C)n1nnc2cc(-c3nc4c(Cl)cccc4o3)ccc21 [Compound 427, 4-chloro-2-(1-isopropyl-1H-benzo[d][1,2,3]triazol-5-yl)benzo[d]oxazole]
Emax [1]: > 75% | hS1P1 B-arrestin2 pEC50 [1]: <5 | Emax [2]: > 75% | hS1P1 cAMP pEC50 [2]: <6.5

Source: US11912693B2, “Compounds for modulating S1P1 activity and methods of using the same” (TREVENA, INC., priority 2017, dated 2024)
